Results reported in patent US20230085307A1, “PYRIDAZINONE COMPOUND AND HERBICIDE” (NISSAN CHEMICAL CORPORATION, priority 2019, published 2023).

Assays:
rice flat sedge = assay: Test Example 3: herbicidal effect by foliage application, Wagner pot (Table 18, symbol E); format: in vivo, rice flat sedge (Cyperus iria); conditions: amount of applied herbicide 320 g/ha
Procedure, shortened: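 Plants were sown in alluvial soil held under 0.1–0.5 cm standing water and grown 14 days in a greenhouse at 25–30 °C. An emulsifiable formulation, water-diluted to the set dose, was then sprayed onto the foliage, and effects were scored three weeks later using previously defined criteria.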

green foxtail [1] = assay: Test Example 4: herbicidal effect by soil treatment (Table 19, symbol G); format: in vivo, green foxtail (Setaria viridis); conditions: amount of applied herbicide 320 g/ha
Procedure, shortened: (§1)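 Three weeks of greenhouse growth at 25° C. to 30° C. followed a uniform surface spray of water-diluted emulsion at a predetermined herbicide amount. Seeds had been sown beforehand under about 1.5 cm of sterilized diluvial soil. Grading followed criteria set out in an earlier test.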

redroot pigweed = assay: Test Example 5: herbicidal effect by foliage application, plastic box (Table 20, symbol N); format: in vivo, redroot pigweed (Amaranthus retroflexus); conditions: foliage application, 320 g/ha, three weeks after application
Procedure, shortened: (§2)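 Plants sown in sterilized diluvial soil and grown 14 days in a greenhouse at 25° C to 30° C, then sprayed on the foliage with the compound's emulsion diluted in water to a predetermined herbicide amount. Injury to weeds and crops scored three weeks after application on a visual rating scale.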

persian speedwell = assay: Test Example 4: herbicidal effect by soil treatment (Table 19, symbol R); format: in vivo, Persian speedwell (Veronica persica); conditions: amount of applied herbicide 320 g/ha
Procedure, shortened: as §1

barnyard grass = assay: Test Example 4: herbicidal effect by soil treatment (Table 19, symbol H); format: in vivo, barnyard grass (Echinochloa crus-galli); conditions: amount of applied herbicide 320 g/ha
Procedure, shortened: as §1

late watergrass [2] = assay: Test Example 1: herbicidal activity, application before weed generation under submerged conditions (Table 16, symbol A); format: in vivo, late watergrass (Echinochloa oryzicola); conditions: amount of applied herbicide 320 g/ha
Procedure, shortened: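 Submerged Wagner pots (alluvial soil, 4 cm water) sown with weed seeds and planted with 2.5-leaf rice seedlings; emulsifiable concentrate diluted in water applied to water surface on sowing day. Held in greenhouse at 25-30 °C; injury scored 0-5 by herbicidal rate after three weeks.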

green foxtail [3] = assay: Test Example 5: herbicidal effect by foliage application, plastic box (Table 20, symbol G); format: in vivo, green foxtail (Setaria viridis); conditions: foliage application, 320 g/ha, three weeks after application
Procedure, shortened: as §2

windgrass = assay: Test Example 4: herbicidal effect by soil treatment (Table 19, symbol L); format: in vivo, windgrass (Apera spica-venti); conditions: amount of applied herbicide 320 g/ha
Procedure, shortened: as §1

lambsquarters = assay: Test Example 4: herbicidal effect by soil treatment (Table 19, symbol O); format: in vivo, lambsquarters (Chenopodium album); conditions: amount of applied herbicide 320 g/ha
Procedure, shortened: as §1

Italian ryegrass = assay: Test Example 5: herbicidal effect by foliage application, plastic box (Table 20, symbol K); format: in vivo, Italian ryegrass (Lolium multiflorum); conditions: foliage application, 320 g/ha, three weeks after application
Procedure, shortened: as §2

velvetleaf [4] = assay: Test Example 4: herbicidal effect by soil treatment (Table 19, symbol M); format: in vivo, velvetleaf (Abutilon theophrasti); conditions: amount of applied herbicide 320 g/ha
Procedure, shortened: as §1

late watergrass [5] = assay: Test Example 2: herbicidal activity, application during weed generation under submerged conditions (Table 17, symbol A); format: in vivo, late watergrass (Echinochloa oryzicola); conditions: AAH 320 g/ha; application during weed generation, submerged conditions
Procedure, shortened: (§3)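 Wagner pot, alluvial soil, 4 cm flood; mixed sowing of all species; greenhouse 25° C.–30° C. Emulsifiable formulation, water-diluted to predetermined dose, applied to paddy water at 1–2 leaf stage. Effect rated at 3 wk using the earlier test's scoring criteria.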

oval-leafed pondweed = assay: Test Example 2: herbicidal activity, application during weed generation under submerged conditions (Table 17, symbol C); format: in vivo, oval-leafed pondweed (Monochoria vaginalis); conditions: AAH 320 g/ha; application during weed generation, submerged conditions
Procedure, shortened: as §3

Japanese bulrush = assay: Test Example 2: herbicidal activity, application during weed generation under submerged conditions (Table 17, symbol B); format: in vivo, Japanese bulrush (Schoenoplectus juncoides); conditions: AAH 320 g/ha; application during weed generation, submerged conditions
Procedure, shortened: as §3

velvetleaf [6] = assay: Test Example 5: herbicidal effect by foliage application, plastic box (Table 20, symbol M); format: in vivo, velvetleaf (Abutilon theophrasti); conditions: foliage application, 320 g/ha, three weeks after application
Procedure, shortened: as §2

chickweed [7] = assay: Test Example 5: herbicidal effect by foliage application, plastic box (Table 20, symbol P); format: in vivo, common chickweed (Stellaria media); conditions: foliage application, 320 g/ha, three weeks after application
Procedure, shortened: as §2

chickweed [8] = assay: Test Example 4: herbicidal effect by soil treatment (Table 19, symbol P); format: in vivo, common chickweed (Stellaria media); conditions: amount of applied herbicide 320 g/ha
Procedure, shortened: as §1

Compound | herbicidal effect on E: rice flat sedge (rice flat sedge) | herbicidal effect, G: green foxtail (green foxtail [1]) | N: redroot pigweed, herbicidal effect grade (redroot pigweed) | herbicidal effect, R: persian speedwell (persian speedwell) | herbicidal effect, H: barnyard grass (barnyard grass) | Herbicidal effect, A: late watergrass (late watergrass [2]) | G: green foxtail, herbicidal effect grade (green foxtail [3]) | herbicidal effect, L: windgrass (windgrass) | herbicidal effect, O: lambsquarters (lambsquarters) | K: Italian ryegrass, herbicidal effect grade (Italian ryegrass) | herbicidal effect, M: velvetleaf (velvetleaf [4]) | herbicidal effect rating, A: late watergrass (late watergrass [5]) | herbicidal effect rating, C: oval-leafed pondweed (oval-leafed pondweed) | herbicidal effect rating, B: Japanese bulrush (Japanese bulrush) | M: velvetleaf, herbicidal effect grade (velvetleaf [6]) | P: chickweed, herbicidal effect grade (chickweed [7]) | herbicidal effect, P: chickweed (chickweed [8])
CCCC(=O)Oc1c(C)nn(C)c(=O)c1-c1c(-c2ccccc2OC)sc2cc(F)ccc12 [3-004] | 5 (Herbicidal rate of 90% or more (almost completely withered)) | 4 (Herbicidal rate of 70% or more and less than 90%) | 5 (Herbicidal rate of 90% or more (almost completely withered)) | 4 (Herbicidal rate of 70% or more and less than 90%) | 4 (Herbicidal rate of 70% or more and less than 90%) | 5 (Herbicidal rate of 90% or more (almost completely withered)) | 4 (Herbicidal rate of 70% or more and less than 90%) | 5 (Herbicidal rate of 90% or more (almost completely withered)) | 5 (Herbicidal rate of 90% or more (almost completely withered)) | 5 (Herbicidal rate of 90% or more (almost completely withered)) | 4 (Herbicidal rate of 70% or more and less than 90%) | 4 (Herbicidal rate of 70% or more and less than 90%) | 4 (Herbicidal rate of 70% or more and less than 90%) | 2 (Herbicidal rate of 20% or more and less than 40%) | 5 (Herbicidal rate of 90% or more (almost completely withered)) | 5 (Herbicidal rate of 90% or more (almost completely withered)) | 5 (Herbicidal rate of 90% or more (almost completely withered))
COc1ccc(-c2sc3cc(F)ccc3c2-c2c(O)c(C)nn(C)c2=O)cc1 [3-005] | 5 (Herbicidal rate of 90% or more (almost completely withered)) | 3 (Herbicidal rate of 40% or more and less than 70%) | 5 (Herbicidal rate of 90% or more (almost completely withered)) | 4 (Herbicidal rate of 70% or more and less than 90%) | 3 (Herbicidal rate of 40% or more and less than 70%) | 4 (Herbicidal rate of 70% or more and less than 90%) | 4 (Herbicidal rate of 70% or more and less than 90%) | 0 (Herbicidal rate of 5% or less (almost no effect)) | 4 (Herbicidal rate of 70% or more and less than 90%) | 3 (Herbicidal rate of 40% or more and less than 70%) | 3 (Herbicidal rate of 40% or more and less than 70%) | 3 (Herbicidal rate of 40% or more and less than 70%) | 4 (Herbicidal rate of 70% or more and less than 90%) | 3 (Herbicidal rate of 40% or more and less than 70%) | 5 (Herbicidal rate of 90% or more (almost completely withered)) | 5 (Herbicidal rate of 90% or more (almost completely withered)) | 5 (Herbicidal rate of 90% or more (almost completely withered))
CCCC(=O)Oc1c(C)nn(C)c(=O)c1-c1c(-c2ccccc2OCC)sc2cc(F)ccc12 [3-007] | 5 (Herbicidal rate of 90% or more (almost completely withered)) | 3 (Herbicidal rate of 40% or more and less than 70%) | 5 (Herbicidal rate of 90% or more (almost completely withered)) | 4 (Herbicidal rate of 70% or more and less than 90%) | 0 (Herbicidal rate of 5% or less (almost no effect)) | 5 (Herbicidal rate of 90% or more (almost completely withered)) | 5 (Herbicidal rate of 90% or more (almost completely withered)) | 5 (Herbicidal rate of 90% or more (almost completely withered)) | 0 (Herbicidal rate of 5% or less (almost no effect)) | 5 (Herbicidal rate of 90% or more (almost completely withered)) | 4 (Herbicidal rate of 70% or more and less than 90%) | 3 (Herbicidal rate of 40% or more and less than 70%) | 4 (Herbicidal rate of 70% or more and less than 90%) | 4 (Herbicidal rate of 70% or more and less than 90%) | 5 (Herbicidal rate of 90% or more (almost completely withered)) | 5 (Herbicidal rate of 90% or more (almost completely withered)) | 5 (Herbicidal rate of 90% or more (almost completely withered))
COc1ccccc1-c1sc2cc(F)ccc2c1-c1c(OC(=O)c2ccco2)c(C)nn(C)c1=O [3-023] | 5 (Herbicidal rate of 90% or more (almost completely withered)) | 4 (Herbicidal rate of 70% or more and less than 90%) | 5 (Herbicidal rate of 90% or more (almost completely withered)) | 4 (Herbicidal rate of 70% or more and less than 90%) | 4 (Herbicidal rate of 70% or more and less than 90%) | 3 (Herbicidal rate of 40% or more and less than 70%) | 5 (Herbicidal rate of 90% or more (almost completely withered)) | 3 (Herbicidal rate of 40% or more and less than 70%) | 2 (Herbicidal rate of 20% or more and less than 40%) | 5 (Herbicidal rate of 90% or more (almost completely withered)) | 0 (Herbicidal rate of 5% or less (almost no effect)) | 2 (Herbicidal rate of 20% or more and less than 40%) | 4 (Herbicidal rate of 70% or more and less than 90%) | 2 (Herbicidal rate of 20% or more and less than 40%) | 5 (Herbicidal rate of 90% or more (almost completely withered)) | 5 (Herbicidal rate of 90% or more (almost completely withered)) | 4 (Herbicidal rate of 70% or more and less than 90%)
